# Where two headings read alike, the source gives them in different places.
# Tested on: MV4:11 human cancer cell lines
# Test: Cellular viability / anti-proliferative activity, CellTiter-Glo, 5 day protocol
# Type: cell-based
# Conditions: Homo sapiens, MV4-11, 120 h, read-out: GI50 on cellular proliferation of MV4:11 human cancer cell lines
# Procedure: Cellular Viability of Human Tumor Cell Lines
# Anti proliferative activity using MLL-harboring cell lines. […] Viability assays are performed by dispensing 200 cells at 7200 cells/mL into each well of an opaque 384-well plate and adding compounds at the indicated concentrations in a final volume of 32 μL and a final concentration of DMSO of 0.3% for all samples. A certain range of compound concentrations is made through a series of 2-fold dilutions starting 30 μM at the highest, total 22 dilutions. After a set incubation period, 5 day protocol, the viability of cells in each well is assessed using the CellTiter-Glo assay (Promega), read on a 96 Microplane Luminometer (Cytation 3, BioTek). Serial dilutions of each cell type are performed in all assays to generate standard curves and the final densities of cells are determined within the dynamic range of the instrument. GI50 values are calculated based on XLfit software (IDBS, Guildford, UK) with Sigmoidal Dose-Response Model. Each compound is tested in minimum of two replicates. Data are expressed as mean.
# [1] = MV4:11 cells, 5 day incubation, CellTiter-Glo, mean of minimum two replicates
SMILES,GI50 [1] [µM],GI50 [µM]
"O=C1c2cc(Cn3ccnc3)ccc2CCN1Cc1cc(Cl)cc(Cl)c1 [Example 1, 7-((1H-Imidazol-1-yl)methyl)-2-(3,5-dichlorobenzyl)-3,4-dihydroisoquinolin-1(2H)-one]",0.239,
"Cc1nccn1Cc1ccc2c(c1)C(=O)N(Cc1cc(Cl)cc(Cl)c1)CC2 [Example 2, 2-(3,5-Dichlorobenzyl)-7-((2-methyl-1H-imidazol-1-yl)methyl)-3,4-dihydroisoquinolin-1(2H)-one]",> 0.938,
"Cc1cc(CN2CCc3c(cc(Cn4ccnc4C)cc3-c3ccccc3)C2=O)ccc1Cl [Example 5, 2-(4-Chloro-3-methylbenzyl)-7-((2-methyl-1H-imidazol-1-yl)methyl)-5-phenyl-3,4-dihydroisoquinolin-1(2H)-one]",> 0.938,
"COc1cc(CN2CCc3c(cc(Cn4ccnc4C)cc3-c3ccc(F)cc3C)C2=O)cc(OC)c1 [Example 6, 2-(3,5-Dimethoxybenzyl)-5-(4-fluoro-2-methylphenyl)-7-((2-methyl-1H-imidazol-1-yl)methyl)-3,4-dihydroisoquinolin-1(2H)-one]",0.301,
"Cc1cc(CN2CCc3c(cc(Cn4ccnc4C)cc3-c3cccnc3C)C2=O)ccc1Cl [Example 7, 2-(4-Chloro-3-methylbenzyl)-7-((2-methyl-1H-imidazol-1-yl)methyl)-5-(2-methylpyridin-3-yl)-3,4-dihydroisoquinolin-1(2H)-one]",0.572,
"COc1ccnc(CN2CCc3c(cc(Cn4ccnc4C)cc3-c3cn(C)nc3C(F)(F)F)C2=O)c1 [Example 8, 2-((4-Methoxypyridin-2-yl)methyl)-7-((2-methyl-1H-imidazol-1-yl)methyl)-5-(1-methyl-3-(trifluoromethyl)-1H-pyrazol-4-yl)-3,4-dihydroisoquinolin-1(2H)-one]",< 0.05,
"COc1ccnc(CN2CCc3c(cc(Cn4ccnc4C4CC4)cc3-c3cn(C)nc3C)C2=O)c1 [Example 9, 7-((2-Cyclopropyl-1H-imidazol-1-yl)methyl)-5-(1,3-dimethyl-1H-pyrazol-4-yl)-2-((4-methoxypyridin-2-yl)methyl)-3,4-dihydroisoquinolin-1(2H)-one]",0.553,
"COc1cc(CN2CCc3c(cc(Cn4ccnc4C)cc3-c3cn(C)nc3C(F)(F)F)C2=O)cc(OC)c1 [Example 10, 2-(3,5-Dimethoxybenzyl)-7-((2-methyl-1H-imidazol-1-yl)methyl)-5-(1-methyl-3-(trifluoromethyl)-1H-pyrazol-4-yl)-3,4-dihydroisoquinolin-1(2H)-one]",< 0.05,
"COc1ccnc(CN2CCc3c(cc(Cn4ccnc4C4CC4)cc3-c3cn(C)nc3C(F)(F)F)C2=O)c1 [Example 11, 7-((2-Cyclopropyl-1H-imidazol-1-yl)methyl)-2-((4-methoxypyridin-2-yl)methyl)-5-(1-methyl-3-(trifluoromethyl)-1H-pyrazol-4-yl)-3,4-dihydroisoquinolin-1(2H)-one]",0.054,
"Cc1ccnc([C@H](C2CC2)N2CCc3c(cc(Cn4ccnc4C)cc3-c3ccc(F)cc3C)C2=O)c1 [Example 12, (S)-2-(Cyclopropyl(4-methylpyridin-2-yl)methyl)-5-(4-fluoro-2-methylphenyl)-7-((2-methyl-1H-imidazol-1-yl)methyl)-3,4-dihydroisoquinolin-1(2H)-one]",0.069,
"CCc1nccn1Cc1cc2c(c(-c3ccc(F)cc3C)c1)CCN([C@H](c1cc(C)ccn1)C1CC1)C2=O [Example 13, (S)-2-(Cyclopropyl(4-methylpyridin-2-yl)methyl)-7-((2-ethyl-1H-imidazol-1-yl)methyl)-5-(4-fluoro-2-methylphenyl)-3,4-dihydroisoquinolin-1(2H)-one]",0.105,
"CCn1cc(-c2cc(Cn3ccnc3C3CC3)cc3c2CCN(Cc2cc(C)nn2C)C3=O)c(C(F)(F)F)n1 [Example 14, 7-((2-Cyclopropyl-1H-imidazol-1-yl)methyl)-2-((1,3-dimethyl-1H-pyrazol-5-yl)methyl)-5-(1-ethyl-3-(trifluoromethyl)-1H-pyrazol-4-yl)-3,4-dihydroisoquinolin-1(2H)-one]",> 0.938,
"CCn1cc(CN2CCc3c(cc(Cn4ccnc4C)cc3-c3cn(CC)nc3C(F)(F)F)C2=O)nn1 [Example 15, 2-((1-Ethyl-1H-1,2,3-triazol-4-yl)methyl)-5-(1-ethyl-3-(trifluoromethyl)-1H-pyrazol-4-yl)-7-((2-methyl-1H-imidazol-1-yl)methyl)-3,4-dihydroisoquinolin-1(2H)-one]",0.076,
"COc1cc(CN2CCc3c(cc(Cn4ccnc4C4CC4)cc3-c3ccc(F)cc3C)C2=O)cc(OC)c1 [Example 16, 7-((2-Cyclopropyl-1H-imidazol-1-yl)methyl)-2-(3,5-dimethoxybenzyl)-5-(4-fluoro-2-methylphenyl)-3,4-dihydroisoquinolin-1(2H)-one]",> 0.938,
"COc1cc(CN2CCc3c(cc(Cn4cc(C)nc4C)cc3-c3cn(C)nc3C(F)(F)F)C2=O)cc(OC)c1 [Example 17, 2-(3,5-Dimethoxybenzyl)-7-((2,4-dimethyl-1H-imidazol-1-yl)methyl)-5-(1-methyl-3-(trifluoromethyl)-1H-pyrazol-4-yl)-3,4-dihydroisoquinolin-1(2H)-one]",0.36,
"COc1cc(CN2CCc3c(cc(Cn4cc(C)nc4C)cc3-c3ccc(F)cc3C)C2=O)cc(OC)c1 [Example 18, 2-(3,5-Dimethoxybenzyl)-7-((2,4-dimethyl-1H-imidazol-1-yl)methyl)-5-(4-fluoro-2-methylphenyl)-3,4-dihydroisoquinolin-1(2H)-one]",> 0.938,
"COc1cc(CN2CCc3c(OCC4CC4)cc(Cn4ccnc4C4CC4)cc3C2=O)cc(OC)c1 [Example 19, 7-((2-Cyclopropyl-1H-imidazol-1-yl)methyl)-5-(cyclopropylmethoxy)-2-(3,5-dimethoxybenzyl)-3,4-dihydroisoquinolin-1(2H)-one]",> 0.938,
"CCn1cc(-c2cc(Cn3ccnc3C)cc3c2CCN(Cc2cn(C)nc2C)C3=O)c(C(F)(F)F)n1 [Example 20, 2-((1,3-Dimethyl-1H-pyrazol-4-yl)methyl)-5-(1-ethyl-3-(trifluoromethyl)-1H-pyrazol-4-yl)-7-((2-methyl-1H-imidazol-1-yl)methyl)-3,4-dihydroisoquinolin-1(2H)-one]",0.508,
"CCc1ccnc(CN2CCc3c(cc(Cn4ccnc4C)cc3-c3cn(CC)nc3C(F)(F)F)C2=O)c1 [Example 21, 5-(1-Ethyl-3-(trifluoromethyl)-1H-pyrazol-4-yl)-2-((4-ethylpyridin-2-yl)methyl)-7-((2-methyl-1H-imidazol-1-yl)methyl)-3,4-dihydroisoquinolin-1(2H)-one]",< 0.05,
"CCc1ccnc(CN2CCc3c(cc(Cn4cc(C)nc4C)cc3-c3cn(CC)nc3C(F)(F)F)C2=O)c1 [Example 22, 7-((2,4-Dimethyl-1H-imidazol-1-yl)methyl)-5-(1-ethyl-3-(trifluoromethyl)-1H-pyrazol-4-yl)-2-((4-ethylpyridin-2-yl)methyl)-3,4-dihydroisoquinolin-1(2H)-one]",0.145,
"Cc1cc([C@H](C)N2CCc3c(OCC4CC4)cc(Cn4ccnc4C4CC4)cc3C2=O)ccc1F [Example 23, (S)-7-((2-Cyclopropyl-1H-imidazol-1-yl)methyl)-5-(cyclopropylmethoxy)-2-(1-(4-fluoro-3-methylphenyl)ethyl)-3,4-dihydroisoquinolin-1(2H)-one]",> 0.938,
"Cc1cc([C@H](C)N2CCc3c(cc(Cn4ccnc4C)cc3-c3cn(C)nc3C(F)(F)F)C2=O)ccc1F [Example 24, (S)-2-(1-(4-Fluoro-3-methylphenyl)ethyl)-7-((2-methyl-1H-imidazol-1-yl)methyl)-5-(1-methyl-3-(trifluoromethyl)-1H-pyrazol-4-yl)-3,4-dihydroisoquinolin-1(2H)-one]",< 0.05,
"COc1cc(CN2CCc3cc(F)c(Cn4ccn(C)c4=N)cc3C2=O)cc(OC)c1 [Example 25, 2-(3,5-Dimethoxybenzyl)-6-fluoro-7-((2-imino-3-methyl-2,3-dihydro-1H-imidazol-1-yl)methyl)-3,4-dihydroisoquinolin-1(2H)-one]",> 0.938,
"Cn1ccn(Cc2cc3c(cc2F)CCN(Cc2ccc(Cl)c(Cl)c2)C3=O)c1=N [Example 26, 2-(3,4-Dichlorobenzyl)-6-fluoro-7-((2-imino-3-methyl-2,3-dihydro-1H-imidazol-1-yl)methyl)-3,4-dihydroisoquinolin-1(2H)-one]",> 0.938,
"Cc1cc(CN2CCc3c(cc(Cn4ccn(C)c4=N)cc3-c3cccnc3C)C2=O)ccc1Cl [Example 27, 2-(4-Chloro-3-methylbenzyl)-7-((2-imino-3-methyl-2,3-dihydro-1H-imidazol-1-yl)methyl)-5-(2-methylpyridin-3-yl)-3,4-dihydroisoquinolin-1(2H)-one]",> 0.938,
"Cc1cc(CN2CCc3c(cc(Cn4ccn(C)c4=N)cc3-c3ccc(F)cc3C)C2=O)ccc1Cl [Example 28, 2-(4-Chloro-3-methylbenzyl)-5-(4-fluoro-2-methylphenyl)-7-((2-imino-3-methyl-2,3-dihydro-1H-imidazol-1-yl)methyl)-3,4-dihydroisoquinolin-1(2H)-one]",> 0.938,
"Cc1ccnc(C(C2CC2)N2CCc3c(cc(Cn4ccn(C)c4=N)cc3-c3ccc(F)cc3C)C2=O)c1 (stereo not drawn) [Example 30, 2-(Cyclopropyl(4-methylpyridin-2-yl)methyl)-5-(4-fluoro-2-methylphenyl)-7-((2-imino-3-methyl-2,3-dihydro-1H-imidazol-1-yl)methyl)-3,4-dihydroisoquinolin-1(2H)-one]",,0.095

# Source: patent publication US11999716B2, “WDR5 inhibitors and modulators” (priority 2018, dated 2024)
